This is an account of results in patent US8129121B2, “Regulation of lipid droplet formation by modulation of FIT1 and FIT2 and uses thereof” (Albert Einstein College of Medicine of Yeshiva University, priority 2007, dated 2012).

One data set concerns FIT2. The experiment in a line: Lentivirus shRNA knockdown of FIT2 in NIH-3T3 L1 cells, FIT2 mRNA and protein. It counts as cell-based, mouse. Particulars: adipocytes infected with lentivirus, vs control shRNA or no virus. The text has this:
(§1) FIG. 4A-4C. shRNAi mediated knockdown of FIT2. NIH-3T3 or RAW246.7 cells were infected with lentivirus expressing shRNA sequence targeting murine FIT2 (FIT2shRNA), or control shRNA (contshRNA), or no lentivirus (control). (A) FIT2shRNA reduced lipid droplet formation during NIH-3T3 cell differentiation (days of differentiation are shown above image) as visualized by BODIPY493/503 staining. […] Expression of differentiation markers Apt and PPARgamma, were not changed in FIT2shRNA treated cells compared to controls.
Lentivirus shRNA. The following short hairpin RNA (shRNA) sequences (sense strand shown) were used to knockdown mouse FIT2 expression: shRNAcont, […] (SEQ ID NO:20); shRNAFIT2, (SEQ ID NO:21) […].
(§2) Double stranded shRNA DNAs were used to generate lentiviruses using the U6 promoter driven BLOCK-iT Lentivirus RNAi expression system (Invitrogen Corporation). Knockdown of human FIT2 in HEK293 cells was performed by stably transfection using pEntryU6 vector (Invitrogen Corp). NIH-3T3 L1 pre-adipocytes and HepG2 cells were infected with an MOI of 10-50.
(§3) shRNA suppression of FIT2 abolishes lipid droplet formation during adipogenesis. To provide a direct test if FIT proteins are essential for the formation of lipid droplets, knockdown of FIT expression was sought in established cellular models of lipid droplet formation. […]

Another data set concerns NIH-3T3 L1 adipocytes. The experiment in a line: Lentivirus shRNA knockdown of FIT2 in NIH-3T3 L1 cells during adipogenesis: lipid droplets, differentiation markers, TG biosynthesis, lipolysis. It counts as cell-based, mouse.
From the text: as §1
FIG. 11A-11B. Triglyceride biosynthesis and lipolysis assays in FIT2 knockdown cells. (A) Triglyceride synthesis measurements were performed at each time point during differentiation using ^14C glycerol and TLC analysis of triglyceride levels quantified by PhosphorImager analysis. Each time point contained 3 independent samples for each condition, and represented as mean±std, p<0.001. […] (B) Lipolysis assays performed on cell lysates from NIH 3T3-L1 cells at day 4 and day 6 of differentiation. No differences were observed between control and shRNAcont and FIT2shRNA adipocytes.
Cell culture. HEK293, and HeLa cells were grown in DMEM 10% FBS. NIH-3T3 L1 adipocytes were a kind gift from Philip Scherer and grow and differentiated by standard methods (24).
Triglyceride biosynthesis and DGAT assays. Cells in culture were incubated with 7.5 μCi/mL of 14C-glycerol (Specific activity: 125-180 mCi/mmol, NEN-Amersham) for the indicated times, followed by extraction with HIP and separation by TLC as referenced above. Radioactive triglycerides were quantified using PhosphorImager analysis and represented as a rate of triglyceride production using arbitrary units obtained from PhosphorImager analysis.
Lipase activity assay. Total cellular lipase activity was measured using the established method of Holm and Osterlund in Methods in Molecular Biology 1999; 109, p 109-121.
as §2, §3

“FIT2 shRNA: lentivirus-expressed short hairpin RNA targeting murine FIT2, SEQ ID NO:21 (CACCGCACCATGTTTGGTTTGTTGGCGAACCAACAAACCAAACATGGTGC)”: the “FIT2 mRNA” value in the data set with FIT2 (Northern blot) is “significantly suppressed”. Moreover, the FIT2 protein entry with FIT2 (Western blot) was “significantly suppressed”. In the data set with NIH-3T3 L1 adipocytes (14C glycerol, TLC, knockdown adipocytes compared to controls), the Triglyceride biosynthesis entry is on record as “similar”. The lipid droplets result in the data set with NIH-3T3 L1 adipocytes (BODIPY493/503 staining, pre-adipocytes (day 0) and mature adipocytes (day 4 to 9)) is reported as “almost complete absence of lipid droplets”. For the same substance, the “expression of PPARgamma and AP2 (markers of adipocyte differentiation)” value with NIH-3T3 L1 adipocytes (FIT2 suppressed cells, Northern blot) is “not changed”. The triglyceride lipase activities entry in the data set on NIH-3T3 L1 adipocytes (cell lysates at day 4 and day 6 of differentiation, compared to controls) is reported as “similar”.
